Laboratory results: BindingDB's records for doi:10.1016/j.bioorg.2004.06.008 (BiomolÉCules Et Cibles Cellulaires Tumorales, 2004)
pIC50: −log10 of the molar value.

Target: T1, Aromatase [1-48] (Homo sapiens, UniProt P11511)
T1 construct: 1-48
T1 sequence (P11511 whole entry): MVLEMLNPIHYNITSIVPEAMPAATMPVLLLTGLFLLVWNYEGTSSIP
Test: Biological Assay
Experimental: The inhibitory activities of the compounds toward aromatase were determined in vitro using human placental microsomes and [1,2,6,7-3H]-androstenedione.

Row | pIC50 | SMILES
1 | 6.70 | COc1ccc2c(c1)OC(c1ccc(Cl)cc1)CC2n1ccnc1 (trans isomer) [2,4-Trans-4'-chloro-4-imidazolyl-7-methoxyflavan, 3b]
2 | 6.89 | COc1ccc2c(c1)OC(c1cccc(O)c1)CC2n1ccnc1 (stereo not drawn) [2,4-Trans-3'-hydroxy-4-imidazolyl-7-methoxyflavan, 3a]
3 | 7.11 | Oc1ccc(C2CC(n3ccnc3)c3ccc(O)cc3O2)cc1 (stereo not drawn) [2,4-Trans-4',7-dihydroxy-4-imidazolyl-7-methoxyflavan, 3e]
4 | 6.88 | COc1ccc2c(c1)OC(c1ccc(C#N)cc1)CC2n1ccnc1 (stereo not drawn) [2,4-Trans-4'-cyano-4-imidazolyl-7-methoxyflavan, 3c]
5 | 7.40 | COc1ccc2c(c1)OC(c1ccc(O)cc1)CC2n1ccnc1 (stereo not drawn) [2,4-Trans-4'-hydroxy-4-imidazolyl-7-methoxyflavan, 3d]
